According to US20070232563A1, “Method for Enhancing Biological Activity and/or Expanding Suitable Region for Biological Activity of Living Body Contacting with Aqueous Environment” (Kabushiki Kaisha Hayashibara Seibutsu Kagaku Kenky, priority 2004, published 2007):

Legend:
[1] = test system: short-necked clam (Ruditapes philippinarum); assay: Biological activity of short-necked clam (aqueduct extension score) in aqueous mineral solutions; type: in vivo; settings: saccharide 1 w/v %, total of 18 clams, 16 h
Experimental: Suitable region for biological activity of short-necked clam (Ruditapes philippinarum), as a fish or shellfish living in seawater, was examined by adding various saccharides to mineral aqueous solutions with various concentrations. In detail, solar salt (85% by weight of sodium chloride and 15% by weight of magnesium) as minerals was dissolved in running water kept in a container for two days to give final concentrations described in the following Table 1. Saccharide (any one of D-glucose, maltose, sucrose, maltitol, α,α-trehalose, α-maltosyl α,α-trehalose, maltotetraose and cyclic tetrasaccharide) was dissolved in the resulting salt solutions to give a final concentration of 1 w/v %, on a dry solid basis. Each of the resulting solutions was placed in a plastic bat. Eighteen pre-selected active short-necked clam in one group were placed in the bat. The bat was shaded with a black cloth and left at ambient temperature (18° C.) for 16 hours. As a control, an aqueous solar salt solution without any saccharides was prepared. Saccharides except for α-maltosyl α,α-trehalose as a saccharide derivatives thereof and cyclic tetrasaccharide were chosen from commercialized products. α-Maltosyl α,α-trehalose as saccharide derivatives of α,α-trehalose in a powder form with a purity of 98 w/w % or over was prepared by the method disclosed in Experiment 4 in Japanese Patent Kokai No. 143876/1995. Cyclic tetrasaccharide in a crystalline form with a purity of 98 w/w % or over, on a dry solid basis, was prepared by the method disclosed in Example A-7 in International Patent Publication No. WO02/10361. Influence of various saccharides was judged by observing the degree of extending aqueduct of the shellfish; 3 points: its aqueduct is well extended; 2 points: its aqueduct is slightly extended; 1 point: its aqueduct is not extended but its shells are opened; 0 point: its shells are closed. The effect on biological activity was judged by the total point of 18 shellfishes. To investigate the effective concentration range of α,α-trehalose or α-maltosyl α,α-trehalose against a mineral solution with a concentration of 1.5 w/v % or 4.5 w/v %, where α,α-trehalose or α-maltosyl α,α-trehalose was remarkably effective in Experiment 1, the following experiment using α,α-trehalose or α-maltosyl α,α-trehalose at a concentration of 0.01, 0.1, 1, 2, 3 or 4 w/v % was carried out according to the method in Experiment 1. As a control, mineral aqueous solutions with a concentration of 1.5 w/v % or 4.5 w/v % without any of the saccharides were prepared and carried out in the same manner.

[2] = test system: colbicula (Corbicula leana); assay: Biological activity of corbicula (aqueduct extension score) in aqueous mineral solutions; type: in vivo; settings: saccharide 1 w/v %, total of 18 shellfishes, 16 h
From the text: Influence of various saccharides was judged by observing the degree of extending aqueduct of the shellfish; 3 points: its aqueduct is well extended; 2 points: its aqueduct is slightly extended; 1 point: its aqueduct is not extended but its shells are opened; 0 point: its shells are closed. The effect on biological activity was judged by the total point of 18 shellfishes.
Suitable region for biological activity was examined by using colbicula (Corbicula leana) as fishes and shellfishes living in fresh water in the case of enhancing their biological activity by using aqueous mineral solutions containing various saccharides. In detail, solar salt (85% by weight of sodium chloride and 15% by weight of magnesium) as minerals was dissolved in tap water kept in a container for two days to give final concentrations described in the following Table 4. Saccharide (any one of D-glucose, maltose, sucrose, maltitol, α,α-trehalose, α-maltosyl α,α-trehalose, maltotetraose and cyclic tetrasaccharide) was dissolved in the resulting salt solutions to give a final concentration of 1 w/v %, on a dry solid basis. The resulting each solution was placed in a plastic bat. Eighteen pre-selected active shellfishes in one group were placed in the bat. The bat was shaded with a black cloth and left at ambient temperature (18° C.) for 16 hours. As a control, an aqueous solar salt solution without saccharides was prepared. Biological activity of the shellfish was judged by measuring extend their aqueducts macroscopically in the same manner as in Experiment 1.
Effective concentration range of α,α-trehalose or α-maltosyl α,α-trehalose on enhancing biological activity and/or influencing on suitable region for biological activity of colbicula (Corbicula leana) was determined according to the method of Experiment 4 by examining biological activity of the shellfish in the aqueous mineral solution with a mineral concentration of 1.5 w/v %, where α,α-trehalose or α-maltosyl α,α-trehalose was effective in Experiment 4, containing α,α-trehalose or α-maltosyl α,α-trehalose at a concentration of 0.01, 0.1, 1, 2, 3 or 4 w/v %, on a dry solid basis. As a control, a solution containing 1.5 w/v % of mineral without such saccharides was prepared and treated in the same manner.

Structure (SMILES) | Judgment score for biological activity ([1]; mineral 0 w/v %) | Judgment score for biological activity ([1]; mineral 0.5 w/v %) | Judgment score for biological activity ([1]; mineral 1.0 w/v %) | Judgment score for biological activity ([1]; mineral 1.5 w/v %) | Judgment score for biological activity ([1]; mineral 2.0 w/v %) | Judgment score for biological activity ([1]; mineral 2.5 w/v %) | Judgment score for biological activity ([1]; mineral 3.0 w/v %) | Judgment score for biological activity ([1]; mineral 3.5 w/v %) | Judgment score for biological activity ([1]; mineral 4.0 w/v %) | Judgment score for biological activity ([1]; mineral 4.5 w/v %) | Judgment score for biological activity ([1]; mineral 5.0 w/v %) | Judgment score for biological activity ([1]; mineral 5.5 w/v %) | Judgment score for biological activity ([1]; mineral 6.0 w/v %) | Judgment score of biological activity ([2]; mineral concentration 0) | Judgment score of biological activity ([2]; mineral concentration 0.5) | Judgment score of biological activity ([2]; mineral concentration 1.0) | Judgment score of biological activity ([2]; mineral concentration 1.5) | Judgment score of biological activity ([2]; mineral concentration 2.0) | Judgment score of biological activity ([2]; mineral concentration 2.5) | Judgment score of biological activity ([2]; mineral concentration 3.0)
O=C[C@H](O)[C@@H](O)[C@H](O)[C@H](O)CO [D-Glucose, D-glucose] | 7 | 12 | 12 | 14 | 30 | 41 | 48 | 44 | 31 | 24 | 11 | 4 | 0 | 50 | 51 | 25 | 18 | 15 | 5 | 0
OC[C@H]1O[C@H](O[C@H]2[C@H](O)[C@@H](O)C(O)O[C@@H]2CO)[C@H](O)[C@@H](O)[C@@H]1O (mixture of isomers) [Maltose, maltose] | 4 | 12 | 14 | 15 | 32 | 44 | 48 | 42 | 32 | 25 | 8 | 3 | 0 | 51 | 49 | 18 | 15 | 14 | 9 | 0
